Patent publication US8344028B2, “Gamma-amino-butyric acid derivatives as GABAB receptor ligands” (XenoPort, Inc., priority 2009, dated 2013)

Biological target: GABAB receptor (Homo sapiens, UniProt Q9UBS5)
Experiment: GABAB receptor agonist or partial agonist activity by binding, electrophysiology, cAMP and/or Ca2+ assay methods (Examples 83-86)
Assay type: cell-based
Protocol: An assay using rat cerebral cortex membranes was used to determine the affinity of GABAB receptor ligands for the GABAB receptor.
An assay buffer of 50 mM Tris pH 7.4 was prepared with 100 μM of isoguvacine, to block GABAA interactions. The assay buffer with isoguvacine was used for dilution of membranes, compounds, and radiolabel.
Rat cerebral cortex membranes were diluted in assay buffer at 1 mg/mL and aliquoted into a 96-well plate at 900 μL/well. Buffer or test compound were added at 20-times final concentration in the buffer at 50 μL/well. Membranes and test compounds or buffer were incubated for 10 min. at room temperature. Radiolableled [S—(R*,R*)]-[3-[[1-(3,4-dichlorophenyl)ethyl]amino]-2-hydroxypropyl](cyclohexylmethyl) phosphinic acid (CGP54626) was then added at 50 μL/well in the buffer at 1-10 nM concentration in 50 μl. […] The assay mixture was filtered using Brandell filtration apparatus and GFB filters, washed twice with 3 mL of 4° C., 50 mM Tris pH 7.4, buffer without isoguvacine. The filters were then dried at room temperature and the dried filters punched out and placed in individual vials. Three (3) mL of scintillation fluid was added to each vial and the radiolabel counted on the scintillation counter. The inverse amount of radiolabel was indicative of binding of a test compound to the GABAB receptor.
The following procedure was used to determine the level of intracellular cAMP. Recombinant HEK cells expressing the GABAB R1a2 receptor were used in the experiments. cAMP levels were measured using a cAMP XS^+ HitHunter™ Chemiluminescence Assay Kit (90-0075-02, GE Healthcare Biosciences Corp.). Cells were seeded overnight at 5,000 cells per well, in black, clear bottom 96-well plates. The following morning, cells were washed twice with 100 μL PBS per well. Forskolin was weighed out and dissolved in DMSO to a final concentration 100 mM. One-hundred (100) μM forskolin solutions were prepared in PBS with and without test compound at 1-times final concentration. Thirty (30) μL of the test solutions were added to the wells and incubated for 1 h at room temperature. The cAMP concentration was determined according to the protocol described in the cAMP assay kit, maintaining the plate at room temperature and in the dark. […] Each well was read for 6 seconds. The untransformed data was then analyzed.
The following procedure was used to determine the GABAB receptor agonist activity of a compound as reflected by activation of Ca^2+ signaling. HEK TREx cells expressing GABABR1a2 under tetracycline induction control, and Gqi chimeric protein (expressed constitutively), allowing GABABR coupling through the Ca^2+ signaling pathway were used in the experiments.
Cells were seeded in media containing tetracycline overnight at 100,000 cells/well, in black, clear-bottom, 96-well plates. The following morning, cells were washed twice with 100 μL HBSS buffer per well. Fluorescent Ca^2+ indicator dye was prepared using the materials and procedure described in the F362056 Fluo-4 NW Calcium Assay Kit (Invitrogen, Carlsbad, Calif.). Ten (10) mL of kit buffer and 100 μl of kit Probenecid were added to individual kit dye vials, and rolled back and forth several times to dissolve the dye. Cells were then loaded into the dye solution at 50 μL per well. The cells and dye were incubated for 30 min at 37° C., and then incubated for an additional 30 min at room temperature in the dark. Test compounds are dissolved in HBSS buffer at twice final concentration. Duplicate wells were used for each unique condition. Solution containing the test compound was added to the wells using a FLEXStation II (Molecular Devices, Sunnyvale, Calif.). Using the instrument in kinetic mode in which each well was read every 2 sec over a total collection time of 50 sec fluorescence was measured using an excitation wavelength 494 nm and a detection wavelength of 516 nm. A normalized fluorescence value for each well was calculated using the following procedure.

Chain of GABAB receptor (Q9UBS5 20-961): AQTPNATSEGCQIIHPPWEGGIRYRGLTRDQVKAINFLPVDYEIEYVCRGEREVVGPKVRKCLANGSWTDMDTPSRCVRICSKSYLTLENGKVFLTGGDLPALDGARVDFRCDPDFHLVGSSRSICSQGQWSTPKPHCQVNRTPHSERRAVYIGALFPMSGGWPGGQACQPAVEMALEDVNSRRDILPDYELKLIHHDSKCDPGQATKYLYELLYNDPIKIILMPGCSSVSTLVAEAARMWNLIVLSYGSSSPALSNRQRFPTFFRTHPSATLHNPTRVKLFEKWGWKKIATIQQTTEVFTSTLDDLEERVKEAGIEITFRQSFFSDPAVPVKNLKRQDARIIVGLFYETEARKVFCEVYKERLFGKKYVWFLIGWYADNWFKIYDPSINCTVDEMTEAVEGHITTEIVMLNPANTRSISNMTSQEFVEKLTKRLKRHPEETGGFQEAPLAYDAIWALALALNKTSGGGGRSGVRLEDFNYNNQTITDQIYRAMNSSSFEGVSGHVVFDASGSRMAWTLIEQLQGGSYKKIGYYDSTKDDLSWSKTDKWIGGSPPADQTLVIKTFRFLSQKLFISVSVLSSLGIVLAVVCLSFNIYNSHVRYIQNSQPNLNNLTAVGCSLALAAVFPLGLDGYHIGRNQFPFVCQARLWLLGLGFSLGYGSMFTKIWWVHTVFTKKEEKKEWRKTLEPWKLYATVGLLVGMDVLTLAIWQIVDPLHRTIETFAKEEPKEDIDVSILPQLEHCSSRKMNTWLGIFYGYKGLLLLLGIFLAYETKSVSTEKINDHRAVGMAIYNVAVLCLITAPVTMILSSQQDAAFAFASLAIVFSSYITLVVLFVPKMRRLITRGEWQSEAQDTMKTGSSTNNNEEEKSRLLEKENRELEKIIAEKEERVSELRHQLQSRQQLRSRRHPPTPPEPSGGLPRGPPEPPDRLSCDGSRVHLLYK
Chain of GABAB receptor (O75899 42-941 partner): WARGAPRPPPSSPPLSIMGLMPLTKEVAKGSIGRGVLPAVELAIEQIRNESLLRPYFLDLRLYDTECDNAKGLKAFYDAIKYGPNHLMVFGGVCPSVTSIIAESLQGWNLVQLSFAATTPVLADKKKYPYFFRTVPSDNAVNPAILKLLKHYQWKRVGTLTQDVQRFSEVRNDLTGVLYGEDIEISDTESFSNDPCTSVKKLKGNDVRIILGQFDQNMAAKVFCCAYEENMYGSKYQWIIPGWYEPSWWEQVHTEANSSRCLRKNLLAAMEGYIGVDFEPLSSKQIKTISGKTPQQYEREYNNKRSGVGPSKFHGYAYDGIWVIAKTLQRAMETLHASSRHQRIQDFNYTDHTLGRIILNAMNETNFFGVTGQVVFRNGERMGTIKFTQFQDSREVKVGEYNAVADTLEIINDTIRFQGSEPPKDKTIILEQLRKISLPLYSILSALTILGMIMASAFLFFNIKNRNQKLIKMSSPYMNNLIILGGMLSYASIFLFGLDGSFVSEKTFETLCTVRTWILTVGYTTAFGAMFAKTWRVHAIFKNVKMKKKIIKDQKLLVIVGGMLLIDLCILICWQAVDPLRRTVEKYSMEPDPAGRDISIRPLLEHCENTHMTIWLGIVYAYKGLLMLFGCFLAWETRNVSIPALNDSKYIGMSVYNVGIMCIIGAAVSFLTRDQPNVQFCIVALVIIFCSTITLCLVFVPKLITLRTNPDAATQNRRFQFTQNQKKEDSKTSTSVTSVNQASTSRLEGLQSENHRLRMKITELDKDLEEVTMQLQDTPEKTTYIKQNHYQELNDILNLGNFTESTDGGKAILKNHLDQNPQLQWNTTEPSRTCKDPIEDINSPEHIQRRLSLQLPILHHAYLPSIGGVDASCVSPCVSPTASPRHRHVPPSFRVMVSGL

| SMILES | GABAB receptor agonist or partial agonist activity |
| --- | --- |
| Cl.NC[C@H](CC(=O)O)c1ccc(Cl)c(-c2ccccc2C(=O)O)c1 [2-{5-[(1R)-2-amino-1-(carboxymethyl)ethyl]-2-chlorophenyl}benzoic acid hydrochloride] | agonist or partial agonist activity |
| Cl.NC[C@H](CC(=O)O)c1ccc(Cl)c(/C=C/c2cccc(C(=O)O)c2)c1 [3-((1E)-2-{5-[(1R)-2-amino-1-(carboxymethyl)ethyl]-2-chlorophenyl}vinyl)benzoic acid hydrochloride] | agonist or partial agonist activity |
| Cl.NC[C@H](CC(=O)O)c1ccc(Cl)c(OCc2cccc(C(=O)O)c2)c1 [3-({5-[(1R)-2-amino-1-(carboxymethyl)ethyl]-2-chlorophenoxy}methyl)benzoic acid hydrochloride] | agonist or partial agonist activity |
| Cl.NC[C@H](CC(=O)O)c1ccc(Cl)cc1/C=C/c1ccccc1 [3-[2-((1E)-2-phenylvinyl)-4-chlorophenyl](3R)-4-aminobutanoic acid hydrochloride] | agonist or partial agonist activity |
| Cl.NC[C@H](CC(=O)O)c1ccc(Cl)c(/C=C/c2ccccn2)c1 [3-[3-((1E)-2-(2-pyridyl)vinyl)-4-chlorophenyl](3R)-4-aminobutanoic acid hydrochloride] | agonist or partial agonist activity |
| Cl.NC[C@H](CC(=O)O)c1ccc(Cl)c(NCc2cccc(C(=O)O)c2)c1 [3-[({5-[(1R)-2-amino-1-(carboxymethyl)ethyl]-2-chlorophenyl}amino)methyl]benzoic acid hydrochloride] | agonist or partial agonist activity |
| Cl.NC[C@H](CC(=O)O)c1ccc(Cl)cc1-c1cccc(C(=O)O)c1 [3-{2-[(1R)-2-amino-1-(carboxymethyl)ethyl]-5-chlorophenyl}benzoic acid hydrochloride] | agonist or partial agonist activity |
| Cl.N#Cc1ccc(C(=O)O)cc1-c1cc([C@H](CN)CC(=O)O)ccc1Cl [3-{5-[(1R)-2-amino-1-(carboxymethyl)ethyl]-2-chlorophenyl}-4-cyanobenzoic acid hydrochloride] | agonist or partial agonist activity |
| Cc1ccc(C(=O)O)cc1-c1cc([C@H](CN)CC(=O)O)ccc1Cl.Cl [3-{5-[(1R)-2-amino-1-(carboxymethyl)ethyl]-2-chlorophenyl}-4-methylbenzoic acid hydrochloride] | agonist or partial agonist activity |
| Cl.NC[C@H](CC(=O)O)c1ccc(Cl)c(-c2cnccc2C(=O)O)c1 [3-{5-[(1R)-2-amino-1-(carboxymethyl)ethyl]-2-chlorophenyl}pyridine-4-carboxylic acid hydrochloride] | agonist or partial agonist activity |
| NC[C@H](CC(=O)O)c1cc(Br)c(Cl)c(-c2cc(Cl)cc(C(=O)O)c2)c1 [3-{5-[(1R)-2-amino-1-(carboxymethyl)ethyl]-3-bromo-2-chlorophenyl}-5-chlorobenzoic acid] | agonist or partial agonist activity |
| Cl.NC[C@H](CC(=O)O)c1cc(Br)c(Cl)c(-c2cccc(C(=O)O)c2)c1 [3-{5-[(1R)-2-amino-1-(carboxymethyl)ethyl]-3-bromo-2-chlorophenyl}benzoic acid hydrochloride] | agonist or partial agonist activity |
| Cl.NC[C@@H](CC(=O)O)c1ccc(Cl)c(-c2cccc(C(=O)O)c2)c1 [3-{5-[(1S)-2-amino-1-(carboxymethyl)ethyl]-2-chlorophenyl}benzoic acid hydrochloride] | agonist or partial agonist activity |
| Cl.NC[C@H](CC(=O)O)c1ccc(Cl)c(Cc2ccc(C(=O)O)cc2)c1 [4-({5-[(1R)-2-amino-1-(carboxymethyl)ethyl]-2-chlorophenyl}methyl)benzoic acid hydrochloride] | agonist or partial agonist activity |
| COc1cncc(-c2cc(C(CN)CC(=O)O)ccc2Cl)c1.Cl (stereo not drawn) [4-amino-3-[4-chloro-3-(5-methoxy(3-pyridyl))phenyl]butanoic acid hydrochloride] | agonist or partial agonist activity |
| NC[C@H](CC(=O)O)c1ccc(Cl)c(CCCC(=O)O)c1 [4-{5-[(1R)-2-amino-1-(carboxymethyl)ethyl]-2-chlorophenyl}butanoic acid] | agonist or partial agonist activity |
| Cl.NC[C@H](CC(=O)O)c1ccc(Cl)c(-c2ccc(C(=O)O)nc2)c1 [5-{5-[(1R)-2-amino-1-(carboxymethyl)ethyl]-2-chlorophenyl}pyridine-2-carboxylic acid hydrochloride] | agonist or partial agonist activity |
| Cl.NC[C@H](CC(=O)O)c1ccc(Cl)c(-c2cccc(C(=O)O)n2)c1 [6-{5-[(1R)-2-amino-1-(carboxymethyl)ethyl]-2-chlorophenyl}pyridine-2-carboxylic acid hydrochloride] | agonist or partial agonist activity |
| Cl.NC[C@H](CC(=O)O)c1ccc(Cl)c(-c2cncc3ccccc23)c1 [(3R)-4-amino-3-(4-chloro-3-(4-isoquinolyl)phenyl)butanoic acid hydrochloride] | agonist or partial agonist activity |
| Cl.NC[C@H](CC(=O)O)c1ccc(Cl)c(-c2ccncc2)c1 [(3R)-4-amino-3-(4-chloro-3-(4-pyridyl)phenyl)butanoic acid hydrochloride] | agonist or partial agonist activity |
| Cl.NC[C@H](CC(=O)O)c1ccc(Cl)c(Oc2ccncc2)c1 [(3R)-4-amino-3-(4-chloro-3-(4-pyridyloxy)phenyl)butanoic acid hydrochloride] | agonist or partial agonist activity |
| Cl.N#Cc1ccccc1CNc1cc([C@H](CN)CC(=O)O)ccc1Cl [(3R)-4-amino-3-(4-chloro-3-{[(2-cyanophenyl)methyl]amino}phenyl)butanoic acid hydrochloride] | agonist or partial agonist activity |
| Cl.NC[C@H](CC(=O)O)c1ccc(Cl)c(NCc2ccncc2Cl)c1 [(3R)-4-amino-3-(4-chloro-3-{[(3-chloro(4-pyridyl))methyl]amino}phenyl)butanoic acid hydrochloride] | agonist or partial agonist activity |
| Cl.NC[C@H](CC(=O)O)c1ccc(Cl)c(NCc2cccc(F)c2)c1 [(3R)-4-amino-3-(4-chloro-3-{[(3-fluorophenyl)methyl]amino}phenyl)butanoic acid hydrochloride] | agonist or partial agonist activity |
| Cl.NC[C@H](CC(=O)O)c1ccc(Cl)c(NCc2ccc(F)cc2)c1 [(3R)-4-amino-3-(4-chloro-3-{[(4-fluorophenyl)methyl]amino}phenyl)butanoic acid hydrochloride] | agonist or partial agonist activity |
| Cc1ccc(CNc2cc([C@H](CN)CC(=O)O)ccc2Cl)cc1.Cl [(3R)-4-amino-3-(4-chloro-3-{[(4-methylphenyl)methyl]amino}phenyl)butanoic acid hydrochloride] | agonist or partial agonist activity |
| Cl.NC[C@H](CC(=O)O)c1ccc(Cl)c(NCc2ccc([N+](=O)[O-])cc2)c1 [(3R)-4-amino-3-(4-chloro-3-{[(4-nitrophenyl)methyl]amino}phenyl)butanoic acid hydrochloride] | agonist or partial agonist activity |
